This note sets out measurements from ChEMBL document CHEMBL3217616, “Modular assembly of cytotoxic acetogenin mimetics by click linkage with nitrogen functionalities” (Medchemcomm, 2011).

Tested on in one experiment: not listed separately
Put plainly: Cytotoxicity against human MDA-MB-435S cells after 48 hrs by CCK-8 assay.
Conditions: not given
It counts as functional, cell-based. Background: Tetrazolium assays rely on reduction of a dye to a coloured formazan, in cell work by metabolically active cells.
Broadly, the IC50 is the concentration that inhibits the measured activity by half. Low readings indicate greater potency, high ones weaker potency. As to `CCCCCCCCCC[C@H](O)COCCOC[C@@H](O)CCCCCCCCCCCCC1=C[C@H](C)OC1=O`, the 50% inhibitory concentration (IC50) is above 25 µM.

Regarding `CCCCCCCCCC[C@H](O)COCCOC[C@@H](O)Cc1cn(CCCCCCCCCC2=C[C@H](C)OC2=O)nn1`, the IC50 is above 25 µM.

`CCCCCCCCCC[C@H](O)COCCOC[C@@H](O)CC(=O)NCCCCCCCCCC1=C[C@H](C)OC1=O` came in with an IC50 above 25 µM.

`CCCCCCCCCC[C@H](O)COCCOC[C@@H](O)CCC1CCN(CCCCCCCCCC2=C[C@H](C)OC2=O)CC1` returned a concentration for half-maximal inhibition (IC50) of 5 µM.

The next experiment has as its system K562. Put plainly: Cytotoxicity against human K562 cells after 48 hrs by CCK-8 assay. Format: functional, cell-based. The note with it: K562, 48 h.
`CCCCCCCCCC[C@H](O)COCCOC[C@@H](O)CCCCCCCCCCCCC1=C[C@H](C)OC1=O`: the half-maximal inhibitory concentration (IC50) stood at 2.7 µM.

In turn, `CCCCCCCCCC[C@H](O)COCCOC[C@@H](O)Cc1cn(CCCCCCCCCC2=C[C@H](C)OC2=O)nn1` showed an IC50 of 8.5 µM.

For the compound `CCCCCCCCCC[C@H](O)COCCOC[C@@H](O)CC(=O)NCCCCCCCCCC1=C[C@H](C)OC1=O`, the IC50 came out at 15 µM.

The compound `CCCCCCCCCC[C@H](O)COCCOC[C@@H](O)CCC1CCN(CCCCCCCCCC2=C[C@H](C)OC2=O)CC1` gave an IC50 of 3.1 µM.

The next experiment concerns U-937. Put plainly: Cytotoxicity against human U937 cells after 48 hrs by CCK-8 assay. The note with it: U-937, 48 h. It counts as functional, cell-based.
Compound `CCCCCCCCCC[C@H](O)COCCOC[C@@H](O)CCCCCCCCCCCCC1=C[C@H](C)OC1=O` showed a 50% inhibitory concentration (IC50) of 1.2 µM.

Regarding `CCCCCCCCCC[C@H](O)COCCOC[C@@H](O)Cc1cn(CCCCCCCCCC2=C[C@H](C)OC2=O)nn1`, the 50% inhibitory concentration (IC50) is above 25 µM.

On to `CCCCCCCCCC[C@H](O)COCCOC[C@@H](O)CC(=O)NCCCCCCCCCC1=C[C@H](C)OC1=O`, for which the IC50 worked out at 5.2 µM.

`CCCCCCCCCC[C@H](O)COCCOC[C@@H](O)CCC1CCN(CCCCCCCCCC2=C[C@H](C)OC2=O)CC1` registered an IC50 of 4.4 µM.

The next experiment has as its system MCF7. Put plainly: Cytotoxicity against human MCF7 cells after 48 hrs by CCK-8 assay. Format: functional, cell-based. The note with it: MCF7, 48 h.
As to `CCCCCCCCCC[C@H](O)COCCOC[C@@H](O)CCCCCCCCCCCCC1=C[C@H](C)OC1=O`, the IC50 is above 25 µM.

Compound `CCCCCCCCCC[C@H](O)COCCOC[C@@H](O)Cc1cn(CCCCCCCCCC2=C[C@H](C)OC2=O)nn1` yielded an IC50 above 25 µM.

`CCCCCCCCCC[C@H](O)COCCOC[C@@H](O)CC(=O)NCCCCCCCCCC1=C[C@H](C)OC1=O` displayed an IC50 above 25 µM.

Compound `CCCCCCCCCC[C@H](O)COCCOC[C@@H](O)CCC1CCN(CCCCCCCCCC2=C[C@H](C)OC2=O)CC1` had a 50% inhibitory concentration (IC50) above 25 µM.

The test system of the next experiment is BT-549. Put plainly: Cytotoxicity against human BT549 cells after 48 hrs by CCK-8 assay. It counts as functional, cell-based. As to conditions: BT-549, 48 h.
In turn, `CCCCCCCCCC[C@H](O)COCCOC[C@@H](O)CCCCCCCCCCCCC1=C[C@H](C)OC1=O` displayed an IC50 of 3.3 µM.

As to `CCCCCCCCCC[C@H](O)COCCOC[C@@H](O)Cc1cn(CCCCCCCCCC2=C[C@H](C)OC2=O)nn1`, the IC50 is above 25 µM.

Compound `CCCCCCCCCC[C@H](O)COCCOC[C@@H](O)CC(=O)NCCCCCCCCCC1=C[C@H](C)OC1=O` yielded a concentration for half-maximal inhibition (IC50) above 25 µM.

`CCCCCCCCCC[C@H](O)COCCOC[C@@H](O)CCC1CCN(CCCCCCCCCC2=C[C@H](C)OC2=O)CC1`: it took 2.2 µM to reach half-maximal inhibition (IC50).

Another experiment deals with Jurkat. Kind of experiment: Cytotoxicity against human Jurkat cells after 48 hrs by CCK-8 assay. Format: functional, cell-based.
Conditions: not given
As to `CCCCCCCCCC[C@H](O)COCCOC[C@@H](O)CCCCCCCCCCCCC1=C[C@H](C)OC1=O`, 2.6 µM corresponded to half-maximal inhibition (IC50).

`CCCCCCCCCC[C@H](O)COCCOC[C@@H](O)Cc1cn(CCCCCCCCCC2=C[C@H](C)OC2=O)nn1` registered an IC50 above 25 µM.

`CCCCCCCCCC[C@H](O)COCCOC[C@@H](O)CC(=O)NCCCCCCCCCC1=C[C@H](C)OC1=O` had a 50% inhibitory concentration (IC50) of 14 µM.

With `CCCCCCCCCC[C@H](O)COCCOC[C@@H](O)CCC1CCN(CCCCCCCCCC2=C[C@H](C)OC2=O)CC1`, the concentration for half-maximal inhibition (IC50) stood at 1.2 µM.

Tested on in the next experiment: not listed separately
Put plainly: Cytotoxicity against human NB4 cells after 48 hrs by CCK-8 assay. It counts as functional, cell-based. The note with it: NB-4, 48 h.
As to `CCCCCCCCCC[C@H](O)COCCOC[C@@H](O)CCCCCCCCCCCCC1=C[C@H](C)OC1=O`, half-maximal inhibition (IC50) was put at 0.7 µM.

Regarding `CCCCCCCCCC[C@H](O)COCCOC[C@@H](O)Cc1cn(CCCCCCCCCC2=C[C@H](C)OC2=O)nn1`, the IC50 came out at 3.2 µM.

On to `CCCCCCCCCC[C@H](O)COCCOC[C@@H](O)CC(=O)NCCCCCCCCCC1=C[C@H](C)OC1=O`, for which the 50% inhibitory concentration (IC50) was found to be 4.5 µM.

Regarding `CCCCCCCCCC[C@H](O)COCCOC[C@@H](O)CCC1CCN(CCCCCCCCCC2=C[C@H](C)OC2=O)CC1`, half-maximal inhibition (IC50) required 1.9 µM.

Tested on in a further experiment: not listed separately
Kind of experiment: Cytotoxicity against human NB4 cells assessed as growth inhibition at 5 to 25 uM after 48 hrs by CCK-8 assay. Format: functional, NB-4.
Conditions: not given
Take `CCCCCCCCCC[C@H](O)COCCOC[C@@H](O)CCCCCCCCCCCCC1=C[C@H](C)OC1=O`: the “inhibition (INH)” value is above 70%.

Turning to `CCCCCCCCCC[C@H](O)COCCOC[C@@H](O)CCC1CCN(CCCCCCCCCC2=C[C@H](C)OC2=O)CC1`, the “inhibition (INH)” value is on record as above 70%.

The test system of another experiment is HL-60. Put plainly: Cytotoxicity against human HL60 cells after 48 hrs by CCK-8 assay. The note with it: HL-60, 48 h. It counts as functional, cell-based.
As to `CCCCCCCCCC[C@H](O)COCCOC[C@@H](O)CCCCCCCCCCCCC1=C[C@H](C)OC1=O`, the IC50 is above 25 µM.

`CCCCCCCCCC[C@H](O)COCCOC[C@@H](O)Cc1cn(CCCCCCCCCC2=C[C@H](C)OC2=O)nn1`: the concentration for half-maximal inhibition (IC50) is above 25 µM.

For `CCCCCCCCCC[C@H](O)COCCOC[C@@H](O)CC(=O)NCCCCCCCCCC1=C[C@H](C)OC1=O`, the IC50 came out at 7.4 µM.

`CCCCCCCCCC[C@H](O)COCCOC[C@@H](O)CCC1CCN(CCCCCCCCCC2=C[C@H](C)OC2=O)CC1` showed a 50% inhibitory concentration (IC50) above 25 µM.

Another experiment has as its system SW-620. Put plainly: Cytotoxicity against human SW620 cells after 48 hrs by CCK-8 assay. It counts as functional, cell-based. As to conditions: SW-620, 48 h.
In turn, `CCCCCCCCCC[C@H](O)COCCOC[C@@H](O)CCCCCCCCCCCCC1=C[C@H](C)OC1=O` came in with an IC50 above 25 µM.

With `CCCCCCCCCC[C@H](O)COCCOC[C@@H](O)Cc1cn(CCCCCCCCCC2=C[C@H](C)OC2=O)nn1`, the IC50 was above 25 µM.

Consider `CCCCCCCCCC[C@H](O)COCCOC[C@@H](O)CC(=O)NCCCCCCCCCC1=C[C@H](C)OC1=O`, for which the IC50 is above 25 µM.

For `CCCCCCCCCC[C@H](O)COCCOC[C@@H](O)CCC1CCN(CCCCCCCCCC2=C[C@H](C)OC2=O)CC1`, the IC50 was found to be 8.1 µM.

In a further experiment the test system is BT-474. Kind of experiment: Cytotoxicity against human BT474 cells after 48 hrs by CCK-8 assay. Format: functional, cell-based. The note with it: BT-474, 48 h.
In the case of `CCCCCCCCCC[C@H](O)COCCOC[C@@H](O)CCCCCCCCCCCCC1=C[C@H](C)OC1=O`, the IC50 was above 25 µM.

Turning to `CCCCCCCCCC[C@H](O)COCCOC[C@@H](O)Cc1cn(CCCCCCCCCC2=C[C@H](C)OC2=O)nn1`, the half-maximal inhibitory concentration (IC50) is above 25 µM.

`CCCCCCCCCC[C@H](O)COCCOC[C@@H](O)CC(=O)NCCCCCCCCCC1=C[C@H](C)OC1=O` displayed an IC50 above 25 µM.

The compound `CCCCCCCCCC[C@H](O)COCCOC[C@@H](O)CCC1CCN(CCCCCCCCCC2=C[C@H](C)OC2=O)CC1` registered a 50% inhibitory concentration (IC50) above 25 µM.

The subject of a further experiment is SK-BR-3. Put plainly: Cytotoxicity against human SK-BR-3 cells after 48 hrs by CCK-8 assay. It counts as functional, cell-based. The note with it: SK-BR-3, 48 h.
Turning to `CCCCCCCCCC[C@H](O)COCCOC[C@@H](O)CCCCCCCCCCCCC1=C[C@H](C)OC1=O`, half-maximal inhibition (IC50) required 22.1 µM.

As for `CCCCCCCCCC[C@H](O)COCCOC[C@@H](O)Cc1cn(CCCCCCCCCC2=C[C@H](C)OC2=O)nn1`, the IC50 was above 25 µM.

Regarding `CCCCCCCCCC[C@H](O)COCCOC[C@@H](O)CC(=O)NCCCCCCCCCC1=C[C@H](C)OC1=O`, the IC50 is above 25 µM.

For `CCCCCCCCCC[C@H](O)COCCOC[C@@H](O)CCC1CCN(CCCCCCCCCC2=C[C@H](C)OC2=O)CC1`, the IC50 amounted to 8 µM.

A further experiment has as its system Kasumi 1. Put plainly: Cytotoxicity against human Kasumi-1 cells after 48 hrs by CCK-8 assay. Format: functional, cell-based. The note with it: Kasumi 1, 48 h.
As to `CCCCCCCCCC[C@H](O)COCCOC[C@@H](O)CCCCCCCCCCCCC1=C[C@H](C)OC1=O`, it took 1.1 µM to reach half-maximal inhibition (IC50).

`CCCCCCCCCC[C@H](O)COCCOC[C@@H](O)Cc1cn(CCCCCCCCCC2=C[C@H](C)OC2=O)nn1` registered an IC50 of 17.8 µM.

`CCCCCCCCCC[C@H](O)COCCOC[C@@H](O)CC(=O)NCCCCCCCCCC1=C[C@H](C)OC1=O` displayed a half-maximal inhibitory concentration (IC50) of 16.7 µM.

In turn, `CCCCCCCCCC[C@H](O)COCCOC[C@@H](O)CCC1CCN(CCCCCCCCCC2=C[C@H](C)OC2=O)CC1` yielded an IC50 of 3.9 µM.

Tested on in another experiment: not listed separately
Kind of experiment: Cytotoxicity against human NB4 cells assessed as growth inhibition at 0.2 uM after 48 hrs by CCK-8 assay. Format: functional. The note with it: NB-4, 48 h.
Broadly, the inhibition is how much of the control response was suppressed. Take `CCCCCCCCCC[C@H](O)COCCOC[C@@H](O)CCCCCCCCCCCCC1=C[C@H](C)OC1=O`: the inhibition at 0.2 µM came out at 48.6%.

Take `CCCCCCCCCC[C@H](O)COCCOC[C@@H](O)CCC1CCN(CCCCCCCCCC2=C[C@H](C)OC2=O)CC1`: the inhibition at 0.2 µM stood at 6.2%.
